Results: PubChem BioAssay (NCI)
Several values for one entry are separate records, joined by “and”; a condition that tells them apart may be missing. Identical values can stand only once.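 Dose response: 5 concentrations. Exposure: 48 h. Format: 96-well plates. Endpoint: linear interpolation; highest concentration if not reached. GI50 marks 50% less growth. TGI denotes the concentration required for complete inhibition of growth.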

Experiments:
Experiment in all cases: NCI-60 cell line screen, 48 h
[1] = tested on: HCC-2998 colon
[2] = tested on: HOP-18 NSCLC
[3] = tested on: A549 NSCLC
[4] = tested on: TK-10 renal
[5] = tested on: 786-0 renal
[6] = tested on: ACHN renal
[7] = tested on: OVCAR-4 ovarian
[8] = tested on: LXFL 529 NSCLC
[9] = tested on: MDA-MB-435
[10] = tested on: BT-549 breast

Structure (SMILES) | TGI [1] [µM] | TGI [2] [µM] | TGI [3] [µM] | TGI [4] | TGI [5] [µM] | TGI [6] [µM] | TGI [7] | GI50 [1] | GI50 [3] [µM] | GI50 [4] | GI50 [5] | GI50 [8] [µM] | TGI [8] [µM] | GI50 [6] [µM] | GI50 [7] [µM] | GI50 [9] | TGI [9] [µM] | GI50 [10] [µM] | TGI [10]
CN(C)CCNC(=O)c1cccc2ccc(-c3cccnc3)nc12 | 18 | 62.9 | 32.3 | 7.05 µM | > 100 | 23.2 | 36.9 µM | – | – | – | – | – | – | – | – | – | – | – | –
COc1cc[c]([Sb]([Br])([CH]=C(C)C)([CH]=C(C)C)[CH]=C(C)C)cc1 | > 100 | – | > 100 | > 100 µM | > 100 | > 100 | > 100 µM | 6.53 µM | 11.3 | 18.8 µM | 13.6 µM | 2.88 | 39.3 | 21.7 | 5.89 | – | – | – | –
CCOC(=O)C12CCSC1C1(C#N)C(C#N)=CC2(N=P(c2ccccc2)(c2ccccc2)c2ccccc2)n2c(=O)n(-c3ccccc3)c(=O)n21 (stereo not given) | > 100 | – | > 100 | > 100 µM | > 100 | > 100 | 79.8 µM | – | – | – | – | – | > 100 | – | – | – | – | – | –
O=C(c1ccccn1)c1nc(-c2ccc(Cl)c(Cl)c2)nc2ccc(Cl)cc12 | > 100 | – | > 100 | > 100 µM | > 100 | > 100 | > 100 µM | – | – | – | – | – | > 100 | – | – | – | – | – | –
COc1cc(-c2cc(-c3nc4cc(Cl)c(Cl)cc4[nH]3)[nH]n2)cc(OC)c1OC | 15 | – | 10.5 | 15.5 µM | 16.2 | 12.8 | 6.77 µM | 4.47 µM | 2.87 | 4.61 µM | 4.09 µM | – | – | 3.54 | 2.21 | 3.78 µM | 14.6 | 2.84 | 8.02 µM
COc1ccc2c(c1)C(=O)c1c-2c(OCCN(C)C)nc2cc(OC)ccc12 | 2.85 | – | 2.8 | 13.7 µM | 2.84 | 1.9 | 2.9 µM | 1.33 µM | 0.804 | 3.14 µM | 1.46 µM | – | – | 0.532 | 1.06 | 1.62 µM | 3.72 | 4.03 | 15.2 µM
O=c1c2cc(Br)ccc2nc(-c2ccccc2)n1NCC1(O)OCC(O)C(O)C1O (stereo not given) | – | – | > 100 | – | > 100 | > 100 | > 100 µM | – | – | – | – | – | > 100 | – | – | – | – | – | –
Clc1ccccc1-c1nc(-c2ccncc2)no1 | 84.8 | – | > 100 | > 100 µM | > 100 | > 100 | > 100 µM | – | – | – | – | – | – | – | – | – | > 100 | – | > 100 µM
C=CCC(N[C@@H](CO)c1ccccc1)c1ccccn1 (stereo not given in full) | > 100 | – | > 100 | > 100 µM | > 100 | > 100 | > 100 µM | > 100 µM | > 100 | > 100 µM | > 100 µM | – | – | > 100 | 25.6 | > 100 µM | > 100 | > 100 | > 100 µM
COc1ccc(S(=O)(=O)NC2=NCCN2C(=S)SN2CCn3c2nsc3=S)cc1OC | 44.1 | – | > 100 | 73.8 µM | 63.9 | > 100 | 34.8 µM | 24.7 µM | 27.9 | 22.2 µM | 25.5 µM | – | – | 28.9 | 16 | 19.8 µM | 44.1 | 30.9 | > 100 µM
CCCCCCCCCCCCOC1C(CNCC2OC3OC(C)(C)OC3C2NC(=O)Nc2ccc(C(F)(F)F)cc2)OC2OC(C)(C)OC21 (stereo not given) | 5.88 | – | 22 | 7.86 µM | 14.4 | 14 | 13.2 µM | 3.05 µM | 8.53 | 3.39 µM | 7.62 µM | – | – | 7.05 | 5.43 | 5.27 µM | 13.4 | 7.44 | 14.4 µM
O=C1OCC2=C1C(c1cccc(C(F)(F)F)c1)c1cc3c(cc1N2CCO)OCO3 (stereo not given) | 17 | – | > 50 | > 50 µM | > 50 | > 50 | > 50 µM | 1.55 µM | 2.9 | 10.1 µM | 1.19 µM | – | – | 3.09 | 2.49 | 0.161 µM | 0.641 | 0.919 | 27.3 µM
COc1ccc2c(O)c(/C=C3\N=Nc4ncccc43)oc2c1C[C@H]1CCNC[C@H]1F | 11.5 | – | 10.8 | 9.13 µM | 1.61 | 8.18 | 6.84 µM | 2.38 µM | 1.74 | 0.479 µM | 0.241 µM | – | – | 0.27 | 0.566 | 0.467 µM | 10.6 | 0.211 | 2.3 µM
Cc1c2cnccc2c(C)c2c1c1cc(C(=O)O)ccc1n2C | 4.61 | – | 6.68 | 8.96 µM | 11.8 | 5.27 | 6.59 µM | 1.25 µM | 1.68 | 1.79 µM | 1.23 µM | – | – | 0.464 | 1.43 | 1.33 µM | 3.4 | 1.47 | 4.82 µM
O=C(O)c1c([N+](=O)[O-])cc(C(F)(F)F)cc1[N+](=O)[O-] | – | – | > 100 | > 100 µM | > 100 | > 100 | > 100 µM | – | – | – | – | – | > 100 | – | – | – | – | – | –
O=C1c2ccccc2C(=O)c2c(NC(=O)C(Cl)CCl)cccc21 (stereo not given) | 32.4 | – | 47.6 | 18.1 µM | 11.9 | 29 | 23.3 µM | – | – | – | – | – | – | – | – | – | 23 | – | 31.2 µM
NC(=O)c1ccc2nc(-c3ccc(C4(N)CCC4)cc3)c(-c3ccccc3)n2n1 | 31.7 | – | 28.5 | 27.8 µM | 12.2 | 20.8 | 44.6 µM | 13 µM | 11.7 | 2.85 µM | 1.23 µM | – | – | 5.97 | 16 | 11.8 µM | 24.4 | 1.28 | 14.5 µM
CN(C)CCN1C(=O)c2cccc3c(N)ccc(c23)C1=O | > 25 | – | > 25 | > 25 µM | > 25 | > 25 | > 25 µM | 17.8 µM | 9.04 | 9.15 µM | 14.1 µM | – | – | 7.9 | 14.1 | 11.1 µM | > 25 | > 25 | > 25 µM
Nc1ccc(-c2ccc(Nc3cc(S(=O)(=O)O)c(N)c4c3C(=O)c3ccccc3C4=O)cc2)c(S(=O)(=O)O)c1 | > 100 | – | > 100 | > 100 µM | > 100 | > 100 | > 100 µM | – | – | – | – | – | – | – | – | – | > 100 | – | > 100 µM
CC(N)(Cc1c[nH]c2ccccc12)C(=O)O (stereo not given) | > 2500 | – | > 2500 | > 2500 µM | > 2500 | > 2500 | > 2500 µM | > 2500 µM | > 2500 | > 2500 µM | > 2500 µM | – | – | > 2500 | > 2500 | > 2500 µM | > 2500 | > 2500 | > 2500 µM
COc1cc(/C=C/C(=O)NC[C@]2(O)CCC3C4CCc5cc(O)ccc5C4CCC32C)ccc1O (stereo not given in full) | 32.4 | – | > 100 | 14.4 µM | 45.7 | > 100 | > 100 µM | 8.62 µM | 7.64 | 2.76 µM | 11.3 µM | – | – | 9.05 | 7.49 | 4.46 µM | 37.5 | 5.54 | 52.1 µM
COc1ccc2[nH]c3c(C)c4cc[n+](C)cc4c(C)c3c2c1 | – | – | – | 89.2 µM and > 163 µM | 5.49 | > 85.3 | 15.9 µM [middle of 4 runs] | 2.41 µM and 1.02 µM | – | 12.4 µM and 24.3 µM and 5.65 µM | 0.267 µM and 0.161 µM and 0.898 µM | 0.383 | 3.41 | 4.04 | 2.18 | 13.4 µM and 5.86 µM | > 88.3 | 0.733 | 5.18 µM and 4.97 µM and 1.79 µM
O=C(CCc1ccco1)NC1CCN(CC2(c3ccc(Cl)cc3)CCC2)CC1 | 19.7 | – | 32.5 | 28.3 µM | 25.8 | 22.7 | 39.2 µM | 6.02 µM | 14.6 | 14.5 µM | 12.6 µM | – | – | 10.5 | 10.3 | 11.8 µM | 24.1 | 15.2 | 29.6 µM
Cc1cc(C(=O)N[C@@H](CCC(=O)O)C(=O)O)sc1CC[C@@H]1CNc2nc(N)[nH]c(=O)c2C1 | > 100 | – | > 100 | > 100 µM | > 100 | > 100 | > 100 µM | 0.0751 µM | 0.0436 | < 0.0154 µM | < 0.01 µM | – | – | < 0.01 | 23.3 | 0.0296 µM | > 100 | 0.0883 | > 100 µM
COc1ccc(N2CCN(CN3CCN(c4ccc(OC)cc4)C3)C2)cc1 | > 100 | – | > 100 | > 100 µM | > 100 | 96.9 | > 100 µM | 50.4 µM | > 100 | > 100 µM | > 100 µM | – | – | 33.5 | > 100 | > 100 µM | > 100 | 79.7 | > 100 µM
